Results taken from patent US7030140B2, “Substituted benzimidazole antiviral agents” (Bristol-Myers Squibb Company, priority 1998, dated 2006).
Structures can show the parent of a compound that is named as a salt.

Experiments:
[1] = in vitro; conditions: human
[2] = test system: respiratory syncytial virus Long strain; assay: microbe, parasite or virus in culture; type: cell-based; conditions: for % cell protection from RSV at 4 µg/mL: human respiratory syncytial virus, 96 h, 4 μg/mL of compound, RSV Long strain-infected HEp-2 cells, compound added 1 hour post infection, 4 days, MTT
[3] = test system: HEp-2 (ATCC CCL 23) cells

Molecule `CC(C)(C)OC(=O)CCn1c(Cn2nnc3ccccc32)nc2ccccc21` [Example 42] has a CC50 at 4 days [1] of 168 µM and a % cell protection from RSV at 4 µg/mL [2] of 100%.
For `O=C(O)CCn1c(Cn2nnc3ccccc32)nc2ccccc21` [Example 43], the CC50 at 4 days [1] was > 309 µM and the % cell protection from RSV at 4 µg/mL [2] was 82%.
For `CS(=O)(=O)CCn1c(Cn2nnc3ccccc32)nc2ccccc21` [Example 26, 1-[1-(2-Methylsulfonyl-ethyl)-1H-benzimidazol-2-ylmethyl]-1H-benzotriazole], the CC50 at 4 days [1] was 200 µM and the % cell protection from RSV at 4 µg/mL [2] was 100%.
For `O=C(Cn1c(Cn2nnc3ccccc32)nc2ccccc21)c1ccccc1` [Example 49, 2-[(2-Benzotriazol-1-ylmethyl)-benzimidazol-1-yl]-1-phenyl-ethanone], the CC50 at 4 days [1] was 18 µM and the % cell protection from RSV at 4 µg/mL [2] was 76%.
Molecule `CC(C)CCCn1c(Cn2nnc3ccccc32)nc2ccccc21` [Example 22, 1-[1-(4-Methylpentyl)-1H-benzimidazol-2-ylmethyl]-1H-benzotriazole] has a CC50 at 4 days [1] of 15 µM and a % cell protection from RSV at 4 µg/mL [2] of 75%.
For `NC(=O)CCn1c(Cn2nnc3ccccc32)nc2ccccc21` [Example 41, 3-(2-Benzotriazol-1-ylmethyl-1-H-benzimidazol-1-yl)-propionamide], the CC50 at 4 days [1] was 4.3 µM and the % cell protection from RSV at 4 µg/mL [2] was 75%.
`C[S+]([O-])CCn1c(Cn2nnc3ccccc32)nc2ccccc21` (stereo not drawn) [Example 25, 1-[1-(2-Methylsulfinyl-ethyl)-1H-benzimidazol-2-ylmethyl]-1H-benzotriazole] gave a CC50 at 4 days [1] of 56 µM and a % cell protection from RSV at 4 µg/mL [2] of 100%.
For `CSCCn1c(Cn2nnc3ccccc32)nc2ccccc21` [Example 24, 1-[1-(2-Methylthio-ethyl)-1H-benzimidazol-2-ylmethyl]-1H-benzotriazole], the CC50 at 4 days [1] was 165 µM and the % cell protection from RSV at 4 µg/mL [2] was 100%.
With `OCCn1c(Cn2nnc3ccccc32)nc2ccccc21` [Example 31, 2-(2-Benzoatrizol-1-ylmethyl-benzimidazol-1-yl)-ethanol] the CC50 at 4 days [1] was 21 µM and the % cell protection from RSV at 4 µg/mL [2] was 48%.
`O=CCCn1c(Cn2nnc3ccccc32)nc2ccccc21` [Example 30, 1-[(2-Benzotriazol-1-ylmethyl)-1-H-benzimidazol-1-yl]-propionaldehyde] gave a CC50 at 4 days [1] of 108 µM and a % cell protection from RSV at 4 µg/mL [2] of 90%.
Molecule `CC(C)(C)C(O)Cn1c(Cn2nnc3ccccc32)nc2ccccc21` (stereo not drawn) [Example 27, 1-(2-Benzotriazol-1-ylmethyl-1-H-benzimidazol-1-yl)-3,3-dimethylbutan-2-ol] has a CC50 at 4 days [1] of 117 µM and a % cell protection from RSV at 4 µg/mL [2] of 44%.
`CC(C)CCn1c(Cn2nc3ccccc3n2)nc2ccccc21` [Example 61, 2-[1-(3-methylbutyl)-1H-benzimidazol-2-ylmethyl]-2H-benzotriazole Dihydrochloride] gave a CC50 at 4 days [1] of 27 µM and a % cell protection from RSV at 4 µg/mL [2] of 78%.
With `CC(C)CCn1c(Cn2nnc3ccccc32)nc2ccccc21` [Example 20, 1-[1-(3-Methylbutyl)-1H-benzimidazol-2-ylmethyl)-1H-benzotriazole] the CC50 at 4 days [1] was 40 µM and the % cell protection from RSV at 4 µg/mL [2] was 87%.
Work on `CC(C)=CCn1c(Cn2nnc3ccccc32)nc2ccccc21` [Example 21, 1-[1-(3-Methyl-2-butenyl)-1H-benzimidazol-2-ylmethyl]-1H-benzotriazole] yielded a CC50 at 4 days [1] of 69 µM and a % cell protection from RSV at 4 µg/mL [2] of 98%.
With `CC(O)CCn1c(Cn2nnc3ccccc32)nc2ccccc21` (stereo not drawn) [Example 38] the CC50 at 4 days [1] was > 309 µM and the % cell protection from RSV at 4 µg/mL [2] was 100%.
`N=C(N)CCn1c(Cn2nnc3ccccc32)nc2ccccc21` [Example 45, 3-(2-Benzotriazol-1-ylmethyl-benzimidazol-1-yl)-1-imino-1propyl-amine Diacetate] gave a CC50 at 4 days [1] of 6.3 µM and a % cell protection from RSV at 4 µg/mL [2] of 74%.
With `c1ccc(CCn2c(Cn3nnc4ccccc43)nc3ccccc32)cc1` [Example 48, 1-[1-(2-Phenethyl)-1-H-benzimidazol-2-ylmethyl)-1H-benzotriazole] the CC50 at 4 days [1] was 2.6 µM and the % cell protection from RSV at 4 µg/mL [2] was 95%.
For `N/C(CCn1c(Cn2nnc3ccccc32)nc2ccccc21)=N\O` [Example 44, N-[3-(2-Benzotriazol-1-ylmethyl-benzimidazol-1-yl)-1-imino-propyl)-hydroxyamine], the CC50 at 4 days [1] was 16 µM and the % cell protection from RSV at 4 µg/mL [2] was 91%.
With `c1cncc(Cn2c(Cn3nnc4ccccc43)nc3ccccc32)c1` [Example 47, 1-[1-(Pyridin-3-yl-methyl)-1H-benzimidazol-2-ylmethyl]-1H-benzotriazole] the CC50 at 4 days [1] was 250 µM and the % cell protection from RSV at 4 µg/mL [2] was 40%.
For `CNC(=O)Cn1c(Cn2nnc3ccccc32)nc2ccccc21` [Example 35, 2-(2-Benzotriazol-1-ylmethyl-benzimidazol-1-yl)-N-methyl acetamide], the CC50 at 4 days [1] was 230 µM and the % cell protection from RSV at 4 µg/mL [2] was 58%.
Work on `NC(=O)c1ncn([C@@H]2O[C@H](CO)[C@@H](O)[C@H]2O)n1` [Ribavirin, reference compound] yielded a cell protection ([2]; control compound at 2.5 μg/mL (corresponding to 10.2 μM)) of 100%.
For `CCCCn1c(Cn2nnc3ccccc32)nc2ccccc21` [Example 19, 1-(1-Butyl-1H-benzimidazol-2-ylmethyl)-1H-benzotriazole], the CC50 at 4 days [1] was 12 µM and the % cell protection from RSV at 4 µg/mL [2] was 95%.
For `OC(Cn1c(Cn2nnc3ccccc32)nc2ccccc21)c1ccccc1` (stereo not drawn) [Example 50, 2-[(2-Benzotriazol-1-ylmethyl)-benzimidazol-1-yl]-1-phenyl-ethanol], the CC50 at 4 days [1] was 36 µM and the % cell protection from RSV at 4 µg/mL [2] was 94%.
With `CC(N)CCn1c(Cn2nnc3ccccc32)nc2ccccc21` (stereo not drawn) [Example 40, 3-(2-Benzotriazol-1-ylmethyl-benzimidazol-1-yl)-1-methyl-propylamine] the CC50 at 4 days [1] was 8.5 µM and the % cell protection from RSV at 4 µg/mL [2] was 96%.
`c1ccc2c(c1)nnn2Cc1nc2ccccc2n1CC1OCCO1` [Example 28] showed a CC50 at 4 days [1] of 29 µM and a % cell protection from RSV at 4 µg/mL [2] of 61%.
Molecule `c1ccc2c(c1)nnn2Cc1nc2ccccc2n1CCC1OCCO1` [Example 29] has a CC50 at 4 days [1] of 185 µM and a % cell protection from RSV at 4 µg/mL [2] of 98%.
`CS(=O)(=O)OCCn1c(Cn2nnc3ccccc32)nc2ccccc21` [Example 32, Methanesulfonic Acid, 2-(2-benzotriazol-1-ylmethyl-benzimidazol-1-yl)-ethyl ester] showed a CC50 at 4 days [1] of 71 µM and a % cell protection from RSV at 4 µg/mL [2] of 60%.
Molecule `c1ccc(Cn2c(Cn3nnc4ccccc43)nc3ccccc32)cc1` [Example 46, 1-[(1-Phenylmethyl-1H-benzimidazol)-2-ylmethyl]-1H-benzotriazole] has a CC50 at 4 days [1] of 97 µM and a % cell protection from RSV at 4 µg/mL [2] of 53%.
In the case of `[N-]=[N+]=NCCn1c(Cn2nnc3ccccc32)nc2ccccc21` [Example 33, 1-[1-(2-Azido-ethyl)-1-H-benzimidazol-2-ylmethyl)-1H-benzotriazole], the CC50 at 4 days [1] is reported as 75 µM and the % cell protection from RSV at 4 µg/mL [2] is reported as 82%.
For `CC(CCn1c(Cn2nnc3ccccc32)nc2ccccc21)=NO` [Example 39], the CC50 at 4 days [1] was > 33 µM and the % cell protection from RSV at 4 µg/mL [2] was 100%.
In the case of `CC(CCn1c(Cn2nnc3ccccc32)nc2ccccc21)CC(C)(C)C` (stereo not drawn) [Example 23, 1-[1-(3,5,5-Trimethyl-hexyl)-1H-benzimidazol-2-ylmethyl]-1H-benzotriazole], the CC50 at 4 days [1] is reported as 59 µM and the % cell protection from RSV at 4 µg/mL [2] is reported as 98%.
For `CC(=O)CCn1c(Cn2nnc3ccccc32)nc2ccccc21` [Example 37], the CC50 [3] was 59 µM and the “% Cell protection at 4 μg/mL” value [2] was 100%.
